{
  "source": "ChEMBL document CHEMBL1201862",
  "about": "“PubChem BioAssay data set” (2004)",
  "assay_in_all_cases": "NCI anticancer screen, dose series, 48 h",
  "key": {"UACC-257": {"tested_on": "UACC-257"}, "SK-OV-3": {"tested_on": "SK-OV-3"}, "OVCAR-3": {"tested_on": "OVCAR-3"}, "HOP-92": {"tested_on": "HOP-92"}, "A498": {"tested_on": "A498"}, "SN12C": {"tested_on": "SN12C"}, "OVCAR-8": {"tested_on": "OVCAR-8"}, "EKVX": {"tested_on": "EKVX"}, "RXF 393": {"tested_on": "RXF 393"}, "SF-295": {"tested_on": "SF-295"}, "TK-10": {"tested_on": "TK-10"}, "T47D": {"tested_on": "T47D"}, "HCT-116": {"tested_on": "HCT-116"}, "HCT-15": {"tested_on": "HCT-15"}, "SR": {"tested_on": "SR"}, "SNB-19": {"tested_on": "SNB-19"}, "DU-145": {"tested_on": "DU-145"}, "NCI-H522": {"tested_on": "NCI-H522"}, "SF-268": {"tested_on": "SF-268"}, "SNB-75": {"tested_on": "SNB-75"}},
  "note": "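Cultured in 96-well plates, cells were exposed to test compound for 48 hours across five concentrations. GI50 = concentration required for 50% inhibition of growth.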 Active and inactive are the calls of the source. Rule as the data show it: active = GI50 up to about 1.1 µM and inactive = higher.",
  "data": [
    {"compound": "COc1ccc2c(Cl)cc(NC(=S)Nc3ccccc3)nc2c1", "values": [
      {"measurement": "GI50", "setting": "UACC-257", "result": "60.8 µM (inactive)"},
      {"measurement": "GI50", "setting": "SK-OV-3", "result": "26 µM (inactive)"},
      {"measurement": "GI50", "setting": "OVCAR-3", "result": "31.8 µM (inactive)"},
      {"measurement": "GI50", "setting": "HOP-92", "result": "21.8 µM (inactive)"},
      {"measurement": "GI50", "setting": "A498", "result": "21.1 µM (inactive)"},
      {"measurement": "GI50", "setting": "SN12C", "result": "33.3 µM (inactive)"},
      {"measurement": "GI50", "setting": "OVCAR-8", "result": "19.4 µM (inactive)"},
      {"measurement": "GI50", "setting": "EKVX", "result": "22 µM (inactive)"},
      {"measurement": "GI50", "setting": "RXF 393", "result": "20.2 µM (inactive)"},
      {"measurement": "GI50", "setting": "SF-295", "result": "31.6 µM (inactive)"},
      {"measurement": "GI50", "setting": "TK-10", "result": "57.7 µM (inactive)"},
      {"measurement": "GI50", "setting": "T47D", "result": "14.5 µM (inactive)"},
      {"measurement": "GI50", "setting": "HCT-116", "result": "20.2 µM (inactive)"},
      {"measurement": "GI50", "setting": "HCT-15", "result": 27.9, "unit": "µM"},
      {"measurement": "GI50", "setting": "SR", "result": "26.2 µM (inactive)"},
      {"measurement": "GI50", "setting": "SNB-19", "result": "20.6 µM (inactive)"},
      {"measurement": "GI50", "setting": "DU-145", "result": "35.7 µM (inactive)"},
      {"measurement": "GI50", "setting": "NCI-H522", "result": "13.2 µM (inactive)"},
      {"measurement": "GI50", "setting": "SF-268", "result": "24.8 µM (inactive)"},
      {"measurement": "GI50", "setting": "SNB-75", "result": "23.6 µM (inactive)"}
    ]},
    {"compound": "CC(NC(=O)c1ccccc1)(C(=O)O)C(=O)O", "values": [
      {"measurement": "GI50", "setting": "UACC-257", "result": "> 100 µM (inactive)"},
      {"measurement": "GI50", "setting": "SK-OV-3", "result": "> 100 µM (inactive)"},
      {"measurement": "GI50", "setting": "OVCAR-3", "result": "> 100 µM (inactive)"},
      {"measurement": "GI50", "setting": "HOP-92", "result": "83 µM (inactive)"},
      {"measurement": "GI50", "setting": "A498", "result": "> 100 µM (inactive)"},
      {"measurement": "GI50", "setting": "SN12C", "result": "> 100 µM (inactive)"},
      {"measurement": "GI50", "setting": "OVCAR-8", "result": "> 100 µM (inactive)"},
      {"measurement": "GI50", "setting": "EKVX", "result": "> 100 µM (inactive)"},
      {"measurement": "GI50", "setting": "RXF 393", "result": "> 100 µM (inactive)"},
      {"measurement": "GI50", "setting": "SF-295", "result": "> 100 µM (inactive)"},
      {"measurement": "GI50", "setting": "TK-10", "result": "> 100 µM (inactive)"},
      {"measurement": "GI50", "setting": "T47D", "result": "> 100 µM (inactive)"},
      {"measurement": "GI50", "setting": "HCT-116", "result": "> 100 µM (inactive)"},
      {"measurement": "GI50", "setting": "HCT-15", "result": "> 100", "unit": "µM"},
      {"measurement": "GI50", "setting": "SR", "result": "> 100 µM (inactive)"},
      {"measurement": "GI50", "setting": "SNB-19", "result": "> 100 µM (inactive)"},
      {"measurement": "GI50", "setting": "DU-145", "result": "> 100 µM (inactive)"},
      {"measurement": "GI50", "setting": "NCI-H522", "result": "> 100 µM (inactive)"},
      {"measurement": "GI50", "setting": "SF-268", "result": "> 100 µM (inactive)"},
      {"measurement": "GI50", "setting": "SNB-75", "result": "> 100 µM (inactive)"}
    ]},
    {"compound": "CN1CCN(c2ccc([N+](=O)[O-])c3no[n+]([O-])c23)CC1", "values": [
      {"measurement": "GI50", "setting": "UACC-257", "result": "1.19 µM (inactive)"},
      {"measurement": "GI50", "setting": "SK-OV-3", "result": "0.148 µM (active)"},
      {"measurement": "GI50", "setting": "OVCAR-3", "result": "0.396 µM (active)"},
      {"measurement": "GI50", "setting": "HOP-92", "result": "0.526 µM (active)"},
      {"measurement": "GI50", "setting": "A498", "result": "1.04 µM (active)"},
      {"measurement": "GI50", "setting": "SN12C", "result": "0.106 µM (active)"},
      {"measurement": "GI50", "setting": "OVCAR-8", "result": "0.24 µM (active)"},
      {"measurement": "GI50", "setting": "EKVX", "result": "1.19 µM (inactive)"},
      {"measurement": "GI50", "setting": "RXF 393", "result": "0.122 µM (active)"},
      {"measurement": "GI50", "setting": "SF-295", "result": "0.0424 µM (active)"},
      {"measurement": "GI50", "setting": "TK-10", "result": "0.792 µM (active)"},
      {"measurement": "GI50", "setting": "T47D", "result": "0.0661 µM (active)"},
      {"measurement": "GI50", "setting": "HCT-116", "result": "0.12 µM (active)"},
      {"measurement": "GI50", "setting": "HCT-15", "result": 0.489, "unit": "µM"},
      {"measurement": "GI50", "setting": "SR", "result": "< 0.01 µM (active)"},
      {"measurement": "GI50", "setting": "SNB-19", "result": "0.914 µM (active)"},
      {"measurement": "GI50", "setting": "DU-145", "result": "0.141 µM (active)"},
      {"measurement": "GI50", "setting": "NCI-H522", "result": "0.0295 µM (active)"},
      {"measurement": "GI50", "setting": "SF-268", "result": "0.0375 µM (active)"},
      {"measurement": "GI50", "setting": "SNB-75", "result": "0.0103 µM (active)"}
    ]},
    {"compound": "CCCCCCCCCCCCCC(=O)CBr", "values": [
      {"measurement": "GI50", "setting": "UACC-257", "result": "13.2 µM (inactive)"},
      {"measurement": "GI50", "setting": "SK-OV-3", "result": "24 µM (inactive)"},
      {"measurement": "GI50", "setting": "OVCAR-3", "result": "18.3 µM (inactive)"},
      {"measurement": "GI50", "setting": "HOP-92", "result": "2.36 µM (inactive)"},
      {"measurement": "GI50", "setting": "A498", "result": "17.4 µM (inactive)"},
      {"measurement": "GI50", "setting": "SN12C", "result": "16.6 µM (inactive)"},
      {"measurement": "GI50", "setting": "OVCAR-8", "result": "14 µM (inactive)"},
      {"measurement": "GI50", "setting": "EKVX", "result": "18.7 µM (inactive)"},
      {"measurement": "GI50", "setting": "RXF 393", "result": "3.3 µM (inactive)"},
      {"measurement": "GI50", "setting": "SF-295", "result": "15.4 µM (inactive)"},
      {"measurement": "GI50", "setting": "TK-10", "result": "15.8 µM (inactive)"},
      {"measurement": "GI50", "setting": "T47D", "result": "3.94 µM (inactive)"},
      {"measurement": "GI50", "setting": "HCT-116", "result": "12.3 µM (inactive)"},
      {"measurement": "GI50", "setting": "HCT-15", "result": 11.1, "unit": "µM"},
      {"measurement": "GI50", "setting": "SR", "result": "1.04 µM (active)"},
      {"measurement": "GI50", "setting": "SNB-19", "result": "16.9 µM (inactive)"},
      {"measurement": "GI50", "setting": "DU-145", "result": "18.6 µM (inactive)"},
      {"measurement": "GI50", "setting": "NCI-H522", "result": "1.84 µM (inactive)"},
      {"measurement": "GI50", "setting": "SF-268", "result": "12.2 µM (inactive)"},
      {"measurement": "GI50", "setting": "SNB-75", "result": "6.03 µM (inactive)"}
    ]},
    {"compound": "CC1C(O)Oc2cc3c(cc2C1c1ccccc1O)OCO3", "note": "(stereo not given)", "values": [
      {"measurement": "GI50", "setting": "UACC-257", "result": "30.1 µM (inactive)"},
      {"measurement": "GI50", "setting": "SK-OV-3", "result": "39.9 µM (inactive)"},
      {"measurement": "GI50", "setting": "OVCAR-3", "result": "27.8 µM (inactive)"},
      {"measurement": "GI50", "setting": "HOP-92", "result": "15.2 µM (inactive)"},
      {"measurement": "GI50", "setting": "A498", "result": "29.6 µM (inactive)"},
      {"measurement": "GI50", "setting": "SN12C", "result": "39.2 µM (inactive)"},
      {"measurement": "GI50", "setting": "OVCAR-8", "result": "36.5 µM (inactive)"},
      {"measurement": "GI50", "setting": "EKVX", "result": "43.6 µM (inactive)"},
      {"measurement": "GI50", "setting": "RXF 393", "result": "14.3 µM (inactive)"},
      {"measurement": "GI50", "setting": "SF-295", "result": "21.2 µM (inactive)"},
      {"measurement": "GI50", "setting": "TK-10", "result": "27.4 µM (inactive)"},
      {"measurement": "GI50", "setting": "T47D", "result": "30.4 µM (inactive)"},
      {"measurement": "GI50", "setting": "HCT-116", "result": "17.9 µM (inactive)"},
      {"measurement": "GI50", "setting": "HCT-15", "result": 33.1, "unit": "µM"},
      {"measurement": "GI50", "setting": "SR", "result": "4.65 µM (inactive)"},
      {"measurement": "GI50", "setting": "SNB-19", "result": "51.6 µM (inactive)"},
      {"measurement": "GI50", "setting": "DU-145", "result": "40.6 µM (inactive)"},
      {"measurement": "GI50", "setting": "NCI-H522", "result": "17.1 µM (inactive)"},
      {"measurement": "GI50", "setting": "SF-268", "result": "36.1 µM (inactive)"},
      {"measurement": "GI50", "setting": "SNB-75", "result": "24.6 µM (inactive)"}
    ]}
  ]
}
